{"source": "patent US10555536B2", "about": "“Crop fortification, nutrition and crop protection composition” (priority 2017, dated 2020)", "system": "Groundnut", "assay": "Field trial on groundnut, protein content of seeds", "design": "species or system Groundnut GG-2 variety", "details": "in vivo", "from_the_text": "Field Trial Study of Treatments with Spirulina Compositions on Groundnut by Soil Drenching. Trials were laid in Ishvarpura (Idar) village, Dist.-Sabarkantha, Gujarat, India, to evaluate various compositions for treatment of Groundnut GG-2 variety. The plot size was 3828 m2. All the recommended agronomic practices were followed. All the treatments were applied by Soil drenching. Also, no urea or any other chemical fertilizer was applied in the trial and in the previous crop. Thus, the parts where compositions of the present invention were applied were free of chemical nutrient for over a year.", "data": [{"smiles": "NC(N)=O", "note": "[Urea]", "values": [{"measurement": "Protein content of Groundnut Seeds %", "result": 48.884, "unit": "%"}]}]}
